Data as given in PubChem BioAssay (NCI).
Several values for one entry are separate records, joined by “and”; a condition that tells them apart may be missing. Equal entries are not always repeated.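 The compound was tested at five concentrations on cells cultured in 96-well plates, with a 48-hour exposure period. The concentration for 50% growth inhibition is given as GI50. The concentration for full growth arrest is given as TGI.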

Legend:
Assay in all cases: inhibition of tumour cell growth, NCI panel, 48 h
NCI-H460 lung = test system: NCI-H460 lung
SR leukemia = test system: SR leukemia
SNB-75 CNS = test system: SNB-75 CNS
BT-549 breast = test system: BT-549 breast
HT29 colon = test system: HT29 colon
MCF7 breast = test system: MCF7 breast
HL-60(TB) leukemia = test system: HL-60(TB) leukemia
OVCAR-8 ovarian = test system: OVCAR-8 ovarian
SNB-19 CNS = test system: SNB-19 CNS
SK-MEL-2 melanoma = test system: SK-MEL-2 melanoma

Row | SMILES | TGI (NCI-H460 lung) | TGI (SR leukemia) | TGI (SNB-75 CNS) | TGI (BT-549 breast) | TGI (HT29 colon) | TGI (MCF7 breast) | TGI (HL-60(TB) leukemia) | TGI (OVCAR-8 ovarian) | TGI (SNB-19 CNS) | TGI (SK-MEL-2 melanoma) | GI50 (NCI-H460 lung) | GI50 (SR leukemia) | GI50 (SNB-75 CNS) | GI50 (BT-549 breast) | GI50 (HT29 colon) | GI50 (MCF7 breast) | GI50 (HL-60(TB) leukemia) | GI50 (OVCAR-8 ovarian) | GI50 (SNB-19 CNS) | GI50 (SK-MEL-2 melanoma)
1 | CCNCC(O)c1ccc(N)c([N+](=O)[O-])c1 (stereo not given) | > 100 µM | > 100 µM | > 100 µM | > 100 µM | > 100 µM | > 100 µM | > 100 µM | > 100 µM | > 100 µM | > 100 µM |  |  |  |  |  |  |  |  |  | 
2 | O=C1/C(=C/c2cccs2)CCC/C1=C\c1cccs1 | > 100 µM | > 100 µM | 81.4 µM | > 100 µM | > 100 µM | > 100 µM | > 100 µM | > 100 µM | > 100 µM | > 100 µM | > 76.4 µM | > 94.9 µM | 16.9 µM | > 58.3 µM | > 100 µM | 0.529 µM | > 100 µM | 51.6 µM | > 54.1 µM | 47.8 µM
3 | CC(=O)Oc1cccc2c1C(=O)c1c(OC(C)=O)cc(C)cc1C2=O | > 100 µM | > 100 µM | > 100 µM | > 100 µM | > 100 µM | > 100 µM | > 100 µM | > 100 µM | > 100 µM | > 100 µM |  |  |  |  |  |  |  |  |  | 
4 | COc1ccc(/C=C2\COc3ccc(-c4ccccc4)cc3C2=O)cc1O | 5.8 µM | > 100 µM | 8.77 µM | 5.57 µM | 3.85 µM | 13 µM | > 100 µM | 6.56 µM | 17.2 µM | 6.1 µM | 2.07 µM | 2 µM | 2.71 µM | 1.69 µM | 1.46 µM | 1.58 µM | 2.29 µM | 2.43 µM | 3.38 µM | 2.17 µM
5 | Cc1nc(NC(=O)N2CCC[C@H]2C(N)=O)sc1-c1ccnc(C(C)(C)C(F)(F)F)c1 | > 100 µM | 44.1 µM and > 10 µM | 15.5 µM | 44.6 µM and > 10 µM | 20.8 µM and > 10 µM | > 38.4 µM | 37.3 µM and > 10 µM | 76.2 µM and > 10 µM | 66.2 µM and > 10 µM | 24.1 µM and > 10 µM | 1.36 µM and 2.02 µM | 8.94 µM and > 10 µM | 0.594 µM | 4.91 µM and 6.33 µM | 0.488 µM and 0.477 µM | 0.12 µM and 0.296 µM | 1.04 µM and 0.289 µM | 8.28 µM and > 10 µM | 8.6 µM and > 10 µM | 6.94 µM and > 10 µM
6 | O=Nc1c(O)ccc2ccccc12 | 35.7 µM | 5.86 µM | 14.5 µM | 24.9 µM | 10.7 µM | 4.71 µM | 6.04 µM | 7.04 µM | 28.2 µM | 4.36 µM | 14.2 µM | 2.16 µM | 2.52 µM | 12.2 µM | 3.41 µM | 2.03 µM | 2.42 µM | 2.28 µM | 14.7 µM | 2.12 µM
